# Results as given in patent US20240325386A1, “THERAPEUTIC AGENT FOR COVID-19” (FUJIFILM Toyama Chemical Co., Ltd., priority 2021, published 2024).
# Read-outs that look alike come from different tables or passages of the source.
# Tests used:
# SARS-CoV-2 [1] = assay type: in vivo
# SARS-CoV-2 [2] = conditions: Japanese phase III clinical study, as reported in Non-patent Literature 4 (news release); cited from earlier work
# [3] = mITT, N = 107, improvement in body temperature, SpO2, chest imaging and SARS-CoV-2 negative conversion
compound,measurement,setting,value
"NC(=O)c1nc(F)cnc1O [Compound A, 6-fluoro-3-hydroxy-2-pyrazinecarboxamide]",median time to improvement shorter than in the control group,"SARS-CoV-2 [1]; mITT, Compound A group 107 patients vs control group 49 patients",approximately 3 days
same,Patients with improvement,"SARS-CoV-2 [1]; mITT, Compound A group N = 107, 1,800 mg BID Day 1 + 800 mg BID up to 13 days, oral, plus standard of care",81
same,Median time to improvement in 25% of patients,SARS-CoV-2 [1]; [3],7.8 days
same,Median time to improvement in 50% of patients,SARS-CoV-2 [1]; [3],11.9 days
same,Median time to improvement in 75% of patients,SARS-CoV-2 [1]; [3],15.6 days
same,median time to improvement shorter than in the control group,SARS-CoV-2 [1]; subgroup of patients testing negative for both IgG antibody and IgA antibody,approximately 5 days
same,"time to improvement of body temperature, SpO2, chest image findings and SARS-CoV-2 negative conversion (primary endpoint) shorter than in the control group",SARS-CoV-2 [2],approximately 3 days
